≈ marks a conversion by molar mass, not a printed value.
How the values were obtained:
[1] = target: T1, murine Syk tyrosine kinase protein (GST:Syk 6-242) (Mus musculus, UniProt P48025); assay: ADA method: displacement of the binding of scFv G4G11 with Syk (ELISA); conditions: small molecules at 10 μM, scFv G4G11 100 nM; read-out: In vit. inhib.: mean inhibition % of the binding of scFv G4G11 with Syk in the ADA method
T1 construct: made in house
Source text: The term “percentage of inhibition” of the binding of an antibody or antibody fragment with Syk protein, particularly refers to the ratio […], where A consists of the intensity of a signal proportional to the quantity of an antibody or antibody fragment bound with Syk protein in the absence of a molecule according to the invention and B the intensity of the same signal in the presence of a molecule according to the invention under the same conditions. […] This test may be performed for example according to the protocol described in example 3-2) hereinafter.
The inventors developed the ADA (Antigen Displacement Assay) method to identify small molecules capable of displacing the association with scFv G4G11 with Syk. […] To understand the mode of action of C-13, the inventors firstly identified the binding site of G4G11 using the SPOT method^16. An epitope located on the N-terminal SH2 domain of Syk, comprising amino acids 65-74 and 100% preserved in mouse, rat and human sequences, was identified.
The ADA method was then applied to each of these […] molecules to measure the ability thereof to inhibit the binding of scFv G4G11 with Syk.
(§1) • 1) Chemical products and antibodies. A chemical bank of 3000 molecules (a varied subset) was acquired from ChemBridge, Inc. (San Diego, Calif.). Stocks of solutions of small molecules were prepared at a rate of 10 mM in DMSO (dimethylsulphoxide), except for C-13 (methyl 2-{5-[(3-benzyl-4-oxo-2-thioxo-1,3-thiazolidin-5-ylidene)methyl]-2-furyl}benzoate, ChemBridge ID No. 6197026) prepared in DMF (dimethylformamide). Unless specified otherwise, all the reagents were supplied by Sigma. Dinitrophenyl (DNP) hapten was acquired from Calbiochem. Sepharose GammaBind G and all the secondary antibodies were supplied by GE Health Amersham Biosciences. The anti-Syk, anti-Lyn, anti-Btk, anti-PLC-γ1, anti-PLC-γ2, anti-LAT, anti-SLP-76, anti-p38, anti-JNK, anti-Vav, anti-Akt1 and 9E10 antibodies conjugated with HRP were acquired from Santa Cruz Biotechnology. The anti-phospho-p44/42 MAP Kinase, anti-p44/42 MAP Kinase, anti-phospho-p38, anti-phospho-JNK, anti-phospho-Akt1 antibodies were acquired from Cell Signaling. The anti-phospho-LAT and anti-phospho-PLC-γ1 antibodies were supplied by Biosource and the anti-phospho-SLP-76 antibodies by BD Pharmingen. The 4G10 anti-phosphotyrosine monoclonal antibody was acquired from Upstate Biotechnology. • 2) ADA method: ELISA type high-speed molecule screening test, based on antibody displacement (WO 2005106481). The recombinant fusion protein GST:Syk 6-242^8 comprising the residues 6 to 242 of murine Syk tyrosine kinase protein illustrated in FIG. 8B (SEQ ID No. 4) was immobilised on an ELISA plate at a final concentration of 10 μg ml^−1. For the screening of the chemical molecule bank, the small molecules, diluted in PBS at a final concentration of 10 μM were added to the wells for one hour at ambient temperature, before adding the fragment scFv G4G11 at a final concentration of 100 nM for an additional hour. The binding of G4G11 with Syk was assessed by adding the 9E10 monoclonal antibody conjugated with HRP detecting the amino acid sequence EQKLISEEDLN of human c-myc protein located at the C-terminal end of the scFv fragment. To generate Syk mutants, targeted mutagenesis was used on GST:Syk 6-242 protein and the binding of G4G11 with the mutants was assessed in the presence of 5 μM of C-13. • 3) Cells, culture conditions and functional tests. Anti-DNP 2682-I mouse monoclonal antibody was used as the culture supernatant of hybridomas containing 1 μg/ml of IgE. Femoral bone marrow cells were sampled and cultured in Opti-MEM medium (Gibco) supplemented with 10% foetal calf serum and 4% X63 transfectant supernatant secreting murine IL-3. RBL-2H3 (ATCC) leukaemic rat basophil cells were maintained in a single-layer culture in RPMI 1640 medium supplemented with 10% foetal calf serum (Gibco). […]

[2] = test system: RBL-2H3 cells; assay: cells; type: cell-based, rat; conditions: Rattus norvegicus; RBL-2H3 cells; read-out: Degran. IC50: concentration inhibiting mast cell degranulation by 50%
Method: These 87 molecules were also tested in vitro to assess the ability thereof to inhibit RBL-2H3 cell degranulation (see table 1).
as §1, with “(Gibco). Measurements of β-hexosaminidase released by the RBL-2H3 cells were performed as described previously^7, except that, after 12-16 hours of incubation with anti-DNP IgE (0.5 μg/ml), the cells were incubated for 90 min at 37° C. in RPMI medium supplemented with the specified concentrations of C-13 or DMF (0.25%). The cells were stimulated for 45 min with DNP-BSA (50 ng ml^−1) or ionomycin (1.5 μM). The BMMC cells were incubated for one hour at 37° C. with anti-DNP IgE (100 ng/ml). They were then incubated with C-13 (3 μM) or DMF (0.3%) for 3 hours at 37° C., and stimulated with varied concentrations of DNP-BSA. The level of β-hexosaminidase released was measured 10 min later and the TNF-α titration was performed by means of a cytotoxicity test on L929 cells as described previously^10, 3 hours after stimulation. The results illustrated in FIG. 3 are representative of three independent experiments. • 4) Immunoprecipitations, in vitro kinase assays and immunodetection.” for “(Gibco).”

Cc1ccc(S(=O)(=O)N(CC(=O)N2CCN(Cc3ccccc3)CC2)c2ccc(C)c(C)c2)cc1 [Molecule 48, N-[2-(4-benzyl-1-piperazinyl)-2-oxoethyl]-N-(3,4-dimethylphenyl)-4-methylbenzenesulphonamide]
inhibition at 10 µM [1]: 47%
IC50 [2]: > 10 µg/mL

CCOC(=O)c1c(-c2ccccc2)oc2ccc(OC(C(=O)O)c3ccccc3)cc12 (stereo not drawn) [Molecule 60, {[3-(ethoxy carbonyl)-2-phenyl-1-benzofuran-5-yl]oxy} (phenyl) acetic acid]
inhibition at 10 µM [1]: 40%
IC50 [2]: > 10 µg/mL

Cc1ccc(-n2c3c(cc(C(=O)NC4CC(C)(C)NC(C)(C)C4)c2=O)C(=O)CC(C)(C)C3)cc1 [Molecule 22, 7,7-dimethyl-1-(4-methylphenyl)-2,5-dioxo-N-(2,2,6,6-tetramethyl-4-piperidinyl)-1,2,5,6,7,8-hexahydro-3-quinoline carboxamide]
inhibition at 10 µM [1]: 57.5%
IC50 [2]: > 10 µg/mL

CC(C)c1ccc(C2C(C(=O)c3ccc(F)cc3)=C(O)C(=O)N2CCN2CCOCC2)cc1 (stereo not drawn) [Molecule 45, 4-(4-fluorobenzoyl)-3-hydroxy-5-(4-isopropylphenyl)-1-[2-(4-morpholinyl)ethyl]-1,5-dihydro-2H-pyrrol-2-one]
inhibition at 10 µM [1]: 48.5%
IC50 [2]: > 10 µg/mL

COc1cccc(C2C(C(=O)c3ccc(F)cc3)=C(O)C(=O)N2CCCN2CCOCC2)c1 (stereo not drawn) [Molecule 24, 4-(4-fluorobenzoyl)-3-hydroxy-5-(3-methoxyphenyl)-1-[3-(4-morpholinyl)propyl]-1,5-dihydro-2H-pyrrol-2-one]
inhibition at 10 µM [1]: 57%
IC50 [2]: > 10 µg/mL

COc1ccc(C2C(C(=O)c3ccc(F)cc3)=C(O)C(=O)N2CCN2CCOCC2)cc1OC (stereo not drawn) [Molecule 31, 5-(3,4-dimethoxyphenyl)-4-(4-fluorobenzoyl)-3-hydroxy-1-(2-(4-morpholinyl)ethyl]-1,5-dihydro-2H-pyrrol-2-one]
inhibition at 10 µM [1]: 50%
IC50 [2]: > 10 µg/mL

COc1ccc(OC)c(C2C(C(=O)c3ccc(C)cc3)=C(O)C(=O)N2Cc2cccnc2)c1 (stereo not drawn) [Molecule 11, 5-(2,5-dimethoxyphenyl)-3-hydroxy-4-(4-methylbenzoyl)-1-(3-pyridinylmethyl)-1,5-dihydro-2H-pyrrol-2-one]
inhibition at 10 µM [1]: 70.5%
IC50 [2]: > 10 µg/mL

COc1cccc(C(=O)N(Cc2cc3ccc(C)cc3nc2C)c2ccccc2OC)c1 [Molecule 70]
inhibition at 10 µM [1]: 30%
IC50 [2]: > 10 µg/mL

CC(C)c1ccc(C2C(C(=O)c3ccccc3)=C(O)C(=O)N2CCN2CCOCC2)cc1 (stereo not drawn) [Molecule 26]
inhibition at 10 µM [1]: 56.5%
IC50 [2]: > 10 µg/mL

O=C(Nc1ccccc1C(=O)N1CCCC1)c1ccc(CN2CCc3ccccc3C2)cc1 [Molecule 78, 4-(3,4-dihydro-2(1H)-isoquinolinyl-methyl)-N-[2-(1-pyrrolidinylcarbonyl)phenyl]benzamide]
inhibition at 10 µM [1]: 25%
IC50 [2]: > 10 µg/mL

O=C(CCCN1C(=O)c2ccccc2C1=O)Nc1sc2c(c1C(=O)NCC1CCCO1)CCC2 (stereo not drawn) [Molecule 30]
inhibition at 10 µM [1]: 51%
IC50 [2]: > 10 µg/mL

COc1ccc(C(=O)C2=C(O)C(=O)N(CCN3CCOCC3)C2c2cccnc2)c(C)c1 (stereo not drawn) [Molecule 14, 3-hydroxy-4-(4-methoxy-2-methylbenzoyl)-1-[2-(4-morpholinyl)ethyl]-5-(3-pyridinyl)-1,5-dihydro-2H-pyrrol-2-one]
inhibition at 10 µM [1]: 67.5%
IC50 [2]: > 10 µg/mL

CN(C)S(=O)(=O)c1ccc(C(=O)C2=C(O)C(=O)N(CCCN3CCOCC3)C2c2cccnc2)cc1 (stereo not drawn) [Molecule 65, 4-{[4-hydroxy-1-[3-(4-morpholinyl)propyl]-5-oxo-2-(3-pyridinyl)-2,5-dihydro-1H-pyrrol-3-yl]carbonyl}-N,N-dimethylbenzenesulphonamide]
inhibition at 10 µM [1]: 37%
IC50 [2]: > 10 µg/mL

CCN(CC)CCCN1C(=O)C(O)=C(C(=O)c2cc3cccc(OC)c3o2)C1c1ccccn1 (stereo not drawn) [Molecule 86, 1-[3-(diethylamino)propyl]-3-hydroxy-4-[(7-methoxy-1-benzofuran-2-yl)carbonyl]-5-(2-pyridinyl)-1,5-dihydro-2H-pyrrol-2-one]
inhibition at 10 µM [1]: 17%
IC50 [2]: ~10 µg/mL (≈ 21.6 µM)

COc1cccc(C2C(C(=O)c3ccc(C)o3)=C(O)C(=O)N2CCN2CCOCC2)c1 (stereo not drawn) [Molecule 53, 3-hydroxy-5-(3-methoxyphenyl)-4-(5-methyl-2-furoyl)-1-[2-(4-morpholinyl)ethyl]-1,5-dihydro-2H-pyrrol-2-one]
inhibition at 10 µM [1]: 45.5%
IC50 [2]: > 10 µg/mL
